According to article PMC10349806 (Nature Communications, 2023):
Substitutions are numbered along the chain they refer to. Several values for one entry are separate records, joined by “and”; a condition that tells them apart may be missing. Equal entries are not always repeated.

Legend:
PfCRT variant F287A = molecular target: T1, PfCRT variant F287A (Plasmodium falciparum, UniProt Q9N623, A220S/F287A/I356T/K76T/M74I/N326S/N75E/Q271E/R371I); experiment: CQ uptake assay, oocytes expressing F287A; type: cell-based
T1 sequence (Q9N623 1-424 M74I/N75E/K76T/A220S/Q271E/F287A/N326S/I356T/R371I): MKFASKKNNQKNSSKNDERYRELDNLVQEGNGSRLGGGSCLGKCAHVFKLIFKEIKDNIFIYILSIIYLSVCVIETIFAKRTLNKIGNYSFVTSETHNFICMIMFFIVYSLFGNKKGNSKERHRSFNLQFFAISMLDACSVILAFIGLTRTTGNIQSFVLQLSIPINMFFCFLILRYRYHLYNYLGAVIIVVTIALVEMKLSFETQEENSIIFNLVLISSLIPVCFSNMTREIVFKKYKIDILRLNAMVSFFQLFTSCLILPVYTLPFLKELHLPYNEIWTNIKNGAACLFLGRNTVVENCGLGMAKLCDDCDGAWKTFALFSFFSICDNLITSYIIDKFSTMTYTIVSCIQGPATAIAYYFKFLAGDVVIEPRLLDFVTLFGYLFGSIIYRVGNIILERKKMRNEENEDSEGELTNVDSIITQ
Description: (§1) Site-directed mutagenesis of PfCRT^Dd2 was performed as described using the megaprimer method with overlap extension[21],[54]. The primer pairs used are listed in Supplementary Table 6. Please note that a codon-optimized and oocyte-adapted version of PfCRT^Dd2 was used[22] (Supplementary Fig. 16). The resulting DNA fragment was cloned into the SP64T expression vector and verified by sequencing.
(§2) Oocytes were obtained as described previously. Briefly, adult (>2 years old) female X. laevis frogs (NASCO) were anesthetized in a cooled solution of ethyl 3-amino benzoate methanesulfonate (0.1%, w/v), followed by a surgical removal of parts of the ovary. The ovary lobes were carefully dissected and small pieces of oocytes were incubated in Ca^2+-free ND96 buffer (96 mM NaCl, 2 mM KCl, 1 mM MgCl2 buffered with 5 mM HEPES/NaOH, pH 7.5) supplemented with collagenase D (0.1%, w/v; Roche), BSA (0.5%, w/v), and 9 mm Na2HPO4 at 18 °C for 14-16 h while gentle shaking. After incubation, the oocytes were carefully washed several times with ND96 buffer (96 mM NaCl, 2 mM KCl, 1.8 mM CaCl2, 1 mM MgCl2 buffered with 5 mM HEPES/NaOH, pH 7.5) supplemented with 100 mg l^−1 gentamycin). Defolliculated and healthy-looking stage V-VI oocytes were manually selected for RNA microinjection. The RNA was generated as following: The codon-optimized sequences of PfCRT variants were cloned into the pSP64T expression vector. After vector linearization using the restriction endonucleases BamHI or SalI (New England Biolabs), transcription was performed using the in vitro SP6 mMessage mMachine Kit (Ambion)[34]. The obtained RNA was kept at −80 °C and diluted with nuclease-free water to a concentration of 0.6 μg μl^−1. Precision-bore glass capillary tubes (3.5-inch glass capillaries; Drummond Scientific Co.) were pulled on a vertical puller (P-87 Flaming/Brown micropipette puller, Sutter Instrument Co.), graduated, and placed on a microinjector (Nanoject II Auto-Nanoliter Injector, Drummond Scientific Co.). 50 nl of nuclease-free water alone (control oocytes) or 50 nl of 0.6 μg μl^−1 RNA were injected under stereomicroscopic control. Injected oocytes were incubated for 46–72 h at 18 °C with twice-daily buffer changes before usage in experiments.
Drug uptake assays were performed as described previously[21],[22],[24],[34]. […] The direction of radio-labeled drug transport is here from the mostly acidic extracellular solution (pH 4.5 or 6.0, as indicated) into the oocyte cytosol (pH ∼ 7.2), which corresponds to the efflux of drug from the acidic digestive vacuole (pH 5.2) into the parasite cytoplasm (pH 7.2). The topology of PfCRT in the oolemma is such that both the N- and C-terminus face the extracellular milieu[3],[22]. In the parasite, the N- and C-terminus face the lumen of the digestive vacuole. CQ uptake kinetics were performed by incubating oocytes in ND96 buffer adjusted to a pH of 4.5, 5.0, 5.5, or 6.0 and supplemented with 50 nM [^3H]CQ and one of 7 different CQ concentrations (10 µM, 50 µM, 100 µM, 200 µM, 300 µM, 400 µM, 500 µM CQ). The reaction was stopped at the 60 min time point, which is in the linear uptake range[22],[34] (Supplementary Fig. 17). For determination of the amount of drug uptake for each oocyte, the reaction medium was removed and the oocytes were washed three times with 2 ml of ice-cold ND96 buffer. Each oocyte was individually transferred to a scintillation vial containing 5% sodium dodecyl sulfate (200 μl) for lysis. The radioactivity of each sample was measured using a liquid scintillation analyzer Tri-Carb 4910 TR (PerkinElmer). Oocytes that were injected with water instead of RNA were analyzed in parallel, representing the uptake of a drug by diffusion and/or endogenous permeation pathways. The resulting value represents the “background“ level of drug accumulation in oocytes (in-depth discussion in[22]). […]

PfCRT variant E54A = molecular target: T2, PfCRT variant E54A (Plasmodium falciparum, UniProt Q9N623, A220S/E54A/I356T/K76T/M74I/N326S/N75E/Q271E/R371I); experiment: CQ uptake assay, oocytes expressing E54A; type: cell-based
T2 sequence (Q9N623 1-424 E54A/M74I/N75E/K76T/A220S/Q271E/N326S/I356T/R371I): T1 sequence (Q9N623 1-424 M74I/N75E/K76T/A220S/Q271E/F287A/N326S/I356T/R371I) with E54A, A287F
Description: as §1
as §2, with “Precision-bore glass capillary tubes (3.5-inch glass capillaries; Drummond Scientific Co.) were pulled on a vertical puller (P-87 Flaming/Brown micropipette puller, Sutter Instrument Co.), graduated, and placed on a microinjector (Nanoject II Auto-Nanoliter Injector, Drummond Scientific Co.). 50 nl of nuclease-free water alone (control oocytes) or 50 nl of 0.6 μg μl^−1 RNA were injected under stereomicroscopic control. Injected oocytes were incubated for 46–72 h at 18 °C with twice-daily buffer changes before usage in experiments.” left out
Drug uptake assays were performed as described previously[21],[22],[24],[34]. […] The radioactivity of each sample was measured using a liquid scintillation analyzer Tri-Carb 4910 TR (PerkinElmer). Oocytes that were injected with water instead of RNA were analyzed in parallel, representing the uptake of a drug by diffusion and/or endogenous permeation pathways. […]

[1] = F287A, 50 µM CQ, 1 h, mean ± SEM

CCN(CC)CCCC(C)Nc1ccnc2cc(Cl)ccc12 (stereo not drawn) [CQ, chloroquine]
Activity at pH 4.5 (PfCRT variant F287A; [1]): 1.50 ± 0.05 pmol h-1 oocyte-1
Activity at pH 6.0 (PfCRT variant F287A; [1]): 4.71 ± 0.24 pmol h-1 oocyte-1
R-value (PfCRT variant F287A; F287A, CQ transport at pH 4.5 / pH 6.0): 0.32 ± 0.02
F287A transport activity pH 4.5 (PfCRT variant F287A; pH 4.5, single replicates, Fig 1d left): 1.56 pmol oocyte-1 h-1 and 1.62 pmol oocyte-1 h-1 and 1.49 pmol oocyte-1 h-1 and 1.34 pmol oocyte-1 h-1
F287 R-value (PfCRT variant F287A; pH 4.5 vs pH 6.0, Fig 1d left): 0.32 and 0.33 and 0.38 and 0.26
F287A transport activity pH 6.0 (PfCRT variant F287A; pH 6.0, single replicates, Fig 1d left): 4.84 pmol oocyte-1 h-1 and 4.98 pmol oocyte-1 h-1 and 3.89 pmol oocyte-1 h-1 and 5.12 pmol oocyte-1 h-1
Activity at pH 4.5 (PfCRT variant E54A; 50 µM CQ, 1 h, mean ± SEM): 1.38 ± 0.17 pmol h-1 oocyte-1
Activity at pH 6.0 (PfCRT variant E54A; 50 µM CQ, 1 h, mean ± SEM): 3.36 ± 0.45 pmol h-1 oocyte-1
R-value (PfCRT variant E54A; CQ transport at pH 4.5 / pH 6.0): 0.44 ± 0.07
